Assay results from patent US20250057803A1, “PRODUCTS OF MANUFACTURE AND METHODS FOR TREATING, AMELIORATING OR PREVENTING CORONAVIRUS INFECTION” (TOPELIA AUST LIMITED (ACN 652 771 670), priority 2020, published 2025).

Assays:
coronavirus COVID-19 [1] = format: in vivo, human
coronavirus COVID-19 [2] = format: in vivo; details: contact of a positive patient; after 4 days of treatment

| SMILES | contraction of COVID-19 under prophylaxis (coronavirus COVID-19 [1]; […], group of elderly travelers on a ship with cases) | test for the virus upon arrival home after the cruise (coronavirus COVID-19 [1]; in vivo) | blood result for COVID-19 virus (coronavirus COVID-19 [2]) |
| --- | --- | --- | --- |
| CCN(CC)CCCC(C)Nc1ccnc2cc(Cl)ccc12 (stereo not drawn) [chloroquine] | None contract COVID-19 coronavirus | negative |  |
| CCOC(=O)C1=C[C@@H](OC(CC)CC)[C@H](NC(C)=O)[C@@H](N)C1 [osteltamivir, oseltamivir] |  |  | positive |
